From ChEMBL document CHEMBL1201862, “PubChem BioAssay data set” (2004)
The source made the active and inactive calls.

Tests used:
[1] = biological target: Cystic fibrosis transmembrane conductance regulator/Golgi-associated PDZ and coiled-coil motif-containing protein (Homo sapiens, UniProt P13569+Q9HD26); test: CAL PDZ peptide-binding inhibitors, dose response, biochemical, fluorescence polarization, Cerulean-tagged CAL PDZ, cherry-picks (AID 504773)
[2] = biological target: Eukaryotic translation initiation factor 4E (Mus musculus, UniProt P63073); test: eIF4E–eIF4G protein interaction inhibitors, dose response, biochemical, TR-FRET (AID 855); assay type: functional;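 further: potency for disrupting eIF4E binding to eIF4GI seen as loss of FRET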
[3] = biological target: T1, Hexokinase HKDC1 (Homo sapiens, UniProt Q2TB90); test: HKDC1 hexokinase inhibitors, dose response, biochemical, W721R variant (AID 504729); assay type: functional
T1 sequence (Q2TB90 whole entry): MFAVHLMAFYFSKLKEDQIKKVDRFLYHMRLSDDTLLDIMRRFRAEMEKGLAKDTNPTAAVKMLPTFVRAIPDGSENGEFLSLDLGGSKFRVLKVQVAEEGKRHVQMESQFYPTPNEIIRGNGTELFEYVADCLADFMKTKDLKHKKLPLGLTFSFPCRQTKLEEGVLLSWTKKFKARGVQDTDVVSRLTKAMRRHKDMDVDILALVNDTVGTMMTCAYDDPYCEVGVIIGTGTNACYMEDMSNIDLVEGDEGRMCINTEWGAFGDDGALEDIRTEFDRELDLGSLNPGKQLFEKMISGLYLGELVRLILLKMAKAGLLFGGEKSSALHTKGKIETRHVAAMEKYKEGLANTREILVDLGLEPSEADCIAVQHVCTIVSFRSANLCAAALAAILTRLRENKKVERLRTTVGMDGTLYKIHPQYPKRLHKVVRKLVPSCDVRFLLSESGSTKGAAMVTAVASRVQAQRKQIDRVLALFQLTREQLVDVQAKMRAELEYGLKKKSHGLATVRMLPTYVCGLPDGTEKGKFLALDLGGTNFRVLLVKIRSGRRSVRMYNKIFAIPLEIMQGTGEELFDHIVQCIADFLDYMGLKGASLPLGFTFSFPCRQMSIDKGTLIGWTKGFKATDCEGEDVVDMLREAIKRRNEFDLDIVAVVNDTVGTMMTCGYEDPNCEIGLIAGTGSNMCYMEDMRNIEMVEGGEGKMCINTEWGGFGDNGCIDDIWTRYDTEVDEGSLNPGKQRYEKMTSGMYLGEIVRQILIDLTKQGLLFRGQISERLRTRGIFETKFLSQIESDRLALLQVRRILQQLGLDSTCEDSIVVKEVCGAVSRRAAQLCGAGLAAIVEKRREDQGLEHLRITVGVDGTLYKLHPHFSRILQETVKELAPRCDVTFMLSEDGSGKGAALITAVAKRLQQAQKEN

[4] = biological target: T2, Replicative DNA helicase DnaB (Mycobacterium tuberculosis, UniProt P9WMR3); test: DnaB intein splicing inhibitors, dose response, biochemical, cell-free fluorescence (AID 449749); assay type: functional
T2 sequence (P9WMR3 whole entry): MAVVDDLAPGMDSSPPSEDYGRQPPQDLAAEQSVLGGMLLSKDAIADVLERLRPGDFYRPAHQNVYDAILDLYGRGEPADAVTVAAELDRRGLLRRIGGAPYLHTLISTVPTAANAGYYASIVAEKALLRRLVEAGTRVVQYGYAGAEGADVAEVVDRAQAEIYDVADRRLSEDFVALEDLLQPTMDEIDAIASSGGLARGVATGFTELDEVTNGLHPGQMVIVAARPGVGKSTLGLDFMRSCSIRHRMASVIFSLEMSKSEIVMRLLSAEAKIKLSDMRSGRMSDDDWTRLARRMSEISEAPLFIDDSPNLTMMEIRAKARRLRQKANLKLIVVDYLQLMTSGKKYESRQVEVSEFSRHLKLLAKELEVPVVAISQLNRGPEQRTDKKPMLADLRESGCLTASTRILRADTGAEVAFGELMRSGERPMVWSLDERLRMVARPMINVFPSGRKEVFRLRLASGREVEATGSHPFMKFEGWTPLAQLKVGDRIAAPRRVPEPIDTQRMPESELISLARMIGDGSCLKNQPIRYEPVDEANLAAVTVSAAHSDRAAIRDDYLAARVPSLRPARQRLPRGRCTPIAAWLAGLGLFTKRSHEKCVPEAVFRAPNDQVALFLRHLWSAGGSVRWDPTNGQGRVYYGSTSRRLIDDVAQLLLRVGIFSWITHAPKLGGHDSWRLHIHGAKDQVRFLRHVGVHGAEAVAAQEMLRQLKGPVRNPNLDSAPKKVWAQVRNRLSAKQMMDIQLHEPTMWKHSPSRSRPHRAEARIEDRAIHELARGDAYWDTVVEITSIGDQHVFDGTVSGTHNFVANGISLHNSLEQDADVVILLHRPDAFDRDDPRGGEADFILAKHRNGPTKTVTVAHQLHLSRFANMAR

[5] = biological target: T3, Protein RecA (Mycobacterium tuberculosis, UniProt P9WHJ3); test: Fluorescence Cell-Free Homogeneous Dose Retest to Identify Inhibitors of RecA-Intein Splicing Activity. [Related pubchem assays (depositor defined):AID2097, AID2223, AID489010, AID492950]; assay type: functional
T3 sequence (P9WHJ3 whole entry): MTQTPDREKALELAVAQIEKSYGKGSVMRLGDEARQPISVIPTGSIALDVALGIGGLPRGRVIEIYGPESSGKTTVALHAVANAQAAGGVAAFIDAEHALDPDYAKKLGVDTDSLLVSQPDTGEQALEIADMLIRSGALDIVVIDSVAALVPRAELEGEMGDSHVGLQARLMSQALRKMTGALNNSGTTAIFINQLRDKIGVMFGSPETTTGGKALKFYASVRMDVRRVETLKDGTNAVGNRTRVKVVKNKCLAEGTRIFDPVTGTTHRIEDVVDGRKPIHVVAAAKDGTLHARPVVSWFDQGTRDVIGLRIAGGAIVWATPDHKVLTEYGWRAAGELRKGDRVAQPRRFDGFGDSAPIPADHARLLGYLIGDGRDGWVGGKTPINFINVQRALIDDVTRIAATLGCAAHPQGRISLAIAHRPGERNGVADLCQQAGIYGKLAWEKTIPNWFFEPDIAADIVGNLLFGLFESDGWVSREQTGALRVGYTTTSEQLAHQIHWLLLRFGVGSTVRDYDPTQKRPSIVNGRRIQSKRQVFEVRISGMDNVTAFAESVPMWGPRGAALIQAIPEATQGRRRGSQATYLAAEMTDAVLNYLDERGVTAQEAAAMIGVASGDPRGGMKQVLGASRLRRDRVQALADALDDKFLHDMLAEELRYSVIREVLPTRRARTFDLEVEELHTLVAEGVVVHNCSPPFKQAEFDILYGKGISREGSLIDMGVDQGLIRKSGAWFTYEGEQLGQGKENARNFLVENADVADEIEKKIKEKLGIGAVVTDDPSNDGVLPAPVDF

[6] = CAL PDZ domain peptide-binding inhibitors, dose response, biochemical, fluorescence polarization, untagged CAL PDZ, cherry-pick (AID 602267); assay type: functional

Sequence of Eukaryotic translation initiation factor 4E (P63073 whole entry): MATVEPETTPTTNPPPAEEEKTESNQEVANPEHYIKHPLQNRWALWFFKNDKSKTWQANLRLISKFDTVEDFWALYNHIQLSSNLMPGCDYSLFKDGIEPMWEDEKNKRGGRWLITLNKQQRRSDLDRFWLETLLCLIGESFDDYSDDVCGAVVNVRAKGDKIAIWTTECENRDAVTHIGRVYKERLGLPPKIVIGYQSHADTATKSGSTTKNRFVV
Sequence of Cystic fibrosis transmembrane conductance regulator/Golgi-associated PDZ and coiled-coil motif-containing protein (P13569 whole entry, other chains not shown): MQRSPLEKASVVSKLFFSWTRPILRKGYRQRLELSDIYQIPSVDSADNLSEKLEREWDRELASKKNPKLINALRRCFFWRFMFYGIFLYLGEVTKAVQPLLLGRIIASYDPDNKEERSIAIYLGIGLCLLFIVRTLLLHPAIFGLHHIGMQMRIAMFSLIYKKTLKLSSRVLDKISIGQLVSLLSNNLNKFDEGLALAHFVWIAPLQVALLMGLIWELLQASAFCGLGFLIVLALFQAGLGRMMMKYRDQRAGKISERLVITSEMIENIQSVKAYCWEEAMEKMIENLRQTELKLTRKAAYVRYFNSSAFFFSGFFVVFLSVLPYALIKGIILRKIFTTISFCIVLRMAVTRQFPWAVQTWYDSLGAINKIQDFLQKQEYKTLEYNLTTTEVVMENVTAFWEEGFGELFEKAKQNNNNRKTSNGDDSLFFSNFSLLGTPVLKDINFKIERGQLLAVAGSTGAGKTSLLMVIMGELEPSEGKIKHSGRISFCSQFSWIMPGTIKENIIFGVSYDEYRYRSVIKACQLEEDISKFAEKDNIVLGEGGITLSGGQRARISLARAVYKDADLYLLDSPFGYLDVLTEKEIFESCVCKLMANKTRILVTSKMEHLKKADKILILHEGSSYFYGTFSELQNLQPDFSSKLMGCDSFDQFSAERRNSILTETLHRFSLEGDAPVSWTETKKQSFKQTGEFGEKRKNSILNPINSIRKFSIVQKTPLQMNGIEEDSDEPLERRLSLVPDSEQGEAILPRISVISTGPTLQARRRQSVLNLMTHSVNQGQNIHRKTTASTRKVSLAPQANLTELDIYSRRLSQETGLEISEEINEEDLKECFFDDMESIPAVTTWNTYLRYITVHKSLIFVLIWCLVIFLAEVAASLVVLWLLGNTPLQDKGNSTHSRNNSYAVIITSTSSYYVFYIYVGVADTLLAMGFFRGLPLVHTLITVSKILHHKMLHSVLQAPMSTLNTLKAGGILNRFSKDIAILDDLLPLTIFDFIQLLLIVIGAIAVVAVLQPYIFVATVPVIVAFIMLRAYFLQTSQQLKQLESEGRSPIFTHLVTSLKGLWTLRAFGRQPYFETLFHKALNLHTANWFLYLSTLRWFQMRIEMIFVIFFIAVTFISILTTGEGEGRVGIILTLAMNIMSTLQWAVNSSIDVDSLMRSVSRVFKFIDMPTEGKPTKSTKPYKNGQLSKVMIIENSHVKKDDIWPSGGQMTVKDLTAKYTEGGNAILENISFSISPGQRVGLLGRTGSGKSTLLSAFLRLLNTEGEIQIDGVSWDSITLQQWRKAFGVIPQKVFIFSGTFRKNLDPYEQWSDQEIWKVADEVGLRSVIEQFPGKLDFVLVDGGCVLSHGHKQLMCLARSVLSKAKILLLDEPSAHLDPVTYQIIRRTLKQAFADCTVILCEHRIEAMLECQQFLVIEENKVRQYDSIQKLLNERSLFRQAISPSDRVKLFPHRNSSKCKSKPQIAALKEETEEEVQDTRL

O=c1c2ccccc2nc2n1CCC2 [DEOXYVASICINONE]
active: AC50 [1] 21.3 µM | IC50 [2] 6.2 µM | IC50 [3] 4.32 µM | AC50 [4] 13.3 µM | EC50 [5] 11.6 µM | AC50 [6] 60.4 µM
